Source: patent US11076597B2, “High stress resistant plant growth regulator and preparation method and use thereof” (SHANGHAI INSTITUTES FOR BIOLOGICAL SCIENCES, CHINESE …, priority 2015, dated 2021)

Assays:
soybean GmPYL6 protein = experiment: AlphaScreen assay, soybean GmPYL6 with Arabidopsis AtHAB1; assay type: biochemical; conditions: fraction of the EC50 of ABA; FIG. 13
Method: The AlphaScreen kit (available from Perkin Elmer) was used, and the method was as follows: a 10× buffer (50 mM MOPS, pH 7.4, 50 mM NaF, 50 mM CHAPS, 0.1 mg/ml bovine serum albumin) diluted at 1:10, each of 100 nM HAB1 with Biotin tag sequence and PYR1/PYL1/PYL2/PYL7/GmPYL6/OsPYL2 protein with dual tags of 6×His and SUMO sequences, corresponding concentrations of (+)-ABA/0224/0304/0706/0708/0713/0715/0428/NC0F4, and 5 μg/ml donor beads and acceptor beads (available from Perkin Elmer) were contained in 150 μl of experimental system. After incubating for 1.5 hours at room temperature in the dark, it was placed into an Envision Plate Reader (available from Perkin Elmer) under the programmed AlphaScreen procedure for readings.

[1] = molecular target: T1, rice OsPYL2 + Arabidopsis AtHAB1 (Oryza sativa subsp. japonica, UniProt Q5Z8S0); experiment: AlphaScreen assay: promotion of the interaction of rice OsPYL2 with Arabidopsis HAB1; assay type: binding, rice (OsPYL2); Arabidopsis thaliana (HAB1); conditions: FIG. 13b; 6×His-SUMO-tagged rice OsPYL2, Biotin-tagged Arabidopsis HAB1 (aa 172-511), 100 nM each; pH 7.4; 1.5 h room temperature
T1 construct: made in house; host or cells: E. coli BL21 (DE3)
T1 sequence (Q5Z8S0 1-207): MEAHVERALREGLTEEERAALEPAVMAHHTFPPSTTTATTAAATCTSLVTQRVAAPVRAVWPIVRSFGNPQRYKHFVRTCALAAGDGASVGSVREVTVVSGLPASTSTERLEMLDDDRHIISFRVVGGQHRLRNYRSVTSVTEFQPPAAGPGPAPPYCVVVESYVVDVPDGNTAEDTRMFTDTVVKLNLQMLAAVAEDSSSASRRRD
T1 sequence (Q9CAJ0 172-511 partner limits assumed): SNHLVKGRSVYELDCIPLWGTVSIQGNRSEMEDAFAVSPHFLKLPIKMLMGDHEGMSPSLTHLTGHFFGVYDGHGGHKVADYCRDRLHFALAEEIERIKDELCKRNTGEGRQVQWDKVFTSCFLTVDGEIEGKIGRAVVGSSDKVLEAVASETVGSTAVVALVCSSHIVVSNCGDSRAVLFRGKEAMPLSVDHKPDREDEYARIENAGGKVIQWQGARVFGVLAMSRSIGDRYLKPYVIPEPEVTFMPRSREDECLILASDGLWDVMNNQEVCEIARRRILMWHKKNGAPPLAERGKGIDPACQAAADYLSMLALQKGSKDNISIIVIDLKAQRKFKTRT
Excerpt: Compound 0428 can promote the interaction of the Arabidopsis protein phosphatase HAB1 with soybean GmPYL6 or rice OsPYL2, and this interaction is dose-dependent.
The construction method of recombinant plasmids for the Arabidopsis thaliana genes PYL1 (amino acid sequence 36-211), PYL2 (amino acid sequence 14-188) with dual tags of 6×His and SUMO sequence and the Arabidopsis thaliana gene HAB1 (amino acid sequence 172-511) with the Biotin tag sequence is described in detail in “A gate-latch-lock mechanism for hormone signaling by abscisic acid receptors” (Nature, Vol 462, 2009). The construction method of recombinant plasmids for PYR1 and PYL7 (whole gene coding sequence) and Soybean GmPYL6 and rice OsPYL2 with dual tags of 6×His and SUMO sequence is the same as that for Arabidopsis PYL2.
The above recombinant plasmid is transformed into competent cell of E. coli BL21 (DE3) (purchased from NEB company), and inoculated into 200 ml of LB liquid medium containing Amp resistance (purchased from OXOID company) and cultured overnight at 37° C. at 200 rpm; and inoculated into 2 L of LB liquid medium containing Amp resistance at a ratio of 1:50-1:100 for an extended culture, and cultured at 37° C., 200 rpm for 3-4 hours, and at a low temperature of 16° C. until OD600 is about 0.8-1.0. […]

EC50 value for soybean GmPYL6 as fraction of that of ABA (soybean GmPYL6 protein) | SMILES | EC50 [1] [µM]
about 1/14 | CCCN1C(=O)OCc2cc(NS(=O)(=O)Cc3c(F)c(F)c(C)c(F)c3F)ccc21 [Compound 0428] | 
 | CC1=CC(=O)CC(C)(C)[C@@]1(O)/C=C/C(C)=C\C(=O)O [ABA, Abscisic Acid, reference compound] | 0.149
